The values that follow come from patent publication US7754715B2, “Sustained-release oral molsidomine composition for treating atherosclerosis” (Therabel Pharmaceuticals Limited, priority 2004, dated 2010).

Entries after “also recorded” stand apart in the source; their conditions may differ.

The subject of experiment [1] is ICAM-1s (circulating soluble ICAM-1). Nature of the experiment: Circulating soluble ICAM-1 in serum (ELISA) in long-term clinical study of patients with stable angina pectoris. The format is in vivo, human. The following applies: for concentration of ICAM-1s, Mean ± SD: 4 weeks double-blind. Here is the method:
This study comprised 3 consecutive phases: • a 7-day pre-study under placebo; • a 4-week double-blind and double-placebo randomized crossover study during which the patients received alternately (2×2 weeks) a molsidomine-based formulation containing an 8 mg dose, currently marketed in Belgium under the name Corvatard® (2 daily dosage units), and a molsidomine-based formulation containing a 16 mg dose, effective over 24 hours, currently marketed in Belgium under the name Coruno® (1 daily dosage unit); and • a 12-month study during which the 172 patients received a molsidomine-based formulation containing a 16 mg dose, currently marketed in Belgium under the name Coruno®. Also, and of greatest importance, the concentrations of ICAM-1s were measured after each of the three phases of the study, the first measurement constituting the baseline. More precisely, the concentrations of ICAM-1s were measured as follows: Blood samples (5 ml) were taken in non-heparinized tubes. These samples were kept at room temperature and then centrifuged. The serum was separated off and immediately frozen at −20° C. until required for analysis. The circulating ICAM-1 was measured using a commercially available ELISA test (R&D Systems Europe).

A short description of experiment [2]: Weekly frequency of angina attacks and of consumption of s.l. ISDN 5 mg tablets in clinical study. Type of experiment: in vivo, human. Here is the method:
This study comprised 3 consecutive phases: • a 7-day pre-study under placebo; • a 4-week double-blind and double-placebo randomized crossover study during which the patients received alternately (2×2 weeks) a molsidomine-based formulation containing an 8 mg dose, currently marketed in Belgium under the name Corvatard® (2 daily dosage units), and a molsidomine-based formulation containing a 16 mg dose, effective over 24 hours, currently marketed in Belgium under the name Coruno® (1 daily dosage unit); and • a 12-month study during which the 172 patients received a molsidomine-based formulation containing a 16 mg dose, currently marketed in Belgium under the name Coruno®. It is pointed out that, during the second phase of the study, the concomitant use of other antianginal drugs was prohibited with the exception of sublingual (s.l.) isosorbide dinitrate (ISDN) 5 mg in tablet form, which could be consumed ad libitum to alleviate the symptoms of anginal pain. In the course of this study, the weekly frequency of angina attacks and the weekly frequency of consumption of s.l. ISDN 5 mg tablets were noted.

The mark [3] stands for this setting: 4-week treatment, versus baseline.

For `CCOC(=O)[N-]c1cn(N2CCOCC2)n[o+]1` [molsidomine], the “effect on the levels of circulating ICAM-1s” value in experiment [1] (4-week treatment (16 mg o.a.d. or 8 mg b.i.d.)) is “no effect; also recorded: did not cause any effect”. Also, the “concentration of ICAM-1s, Mean ± SD” value in experiment [1] (alcohol <1 glass/day, N=161) is 276 ± 89 ng/mL; in experiment [1] (alcohol ≧1 glass/day, N=11) it was 242 ± 38 ng/mL; in experiment [1] (all patients, N=172), 274 ± 87 ng/mL; in experiment [1] (both concomitant drugs, N=20), 247 ± 45 ng/mL; in experiment [1] (concomitant beta-blockers, N=30), 281 ± 58 ng/mL; in experiment [1] (concomitant statins, N=38), 277 ± 70 ng/mL. Besides, the “concentration of ICAM-1s, Mean ± SD” value is 277 ± 67 ng/mL in experiment [1] (former smokers, N=59); 264 ± 58 ng/mL in experiment [1] (men, N=117); 276 ± 112 ng/mL in experiment [1] (no concomitant medication, N=78); 262 ± 74 ng/mL in experiment [1] (non-smokers, N=81); 297 ± 138 ng/mL in experiment [1] (smokers, N=32); 293 ± 128 ng/mL in experiment [1] (women, N=55). Moreover, in experiment [2] (setting [3]), the “consumption of sublingual nitro compounds” value is given as “decreased”. Further, in experiment [2] (setting [3]), the “number of angina attacks” value is recorded as “decreased”. For the same molecule, the antianginal effects entry in experiment [2] (after one year) is on record as “maintained or even improved”.
